Publication PMC6278385, “Preclinical Pharmacokinetics of C118P, a Novel Prodrug of Microtubules Inhibitor and Its Metabolite C118 in Mice, Rats, and Dogs” (Molecules, 2018)

What was measured:
[1] = Plasma protein binding by ultrafiltration; assay type: in vitro ADME, Sprague-Dawley rats; details: Sprague-Dawley, rat plasma, read-out: fu (fraction unbound);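 also: fu expressed in percent not as a fraction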
Experimental: Both C118P and C118 were stable in the plasma with EDTA as anticoagulant. The non-specific binding to the ultrafilter membrane was negligible. The extent of plasma protein binding was reported as a fraction unbound (fu, %) value which was calculated using the formula fu = PF/TC × 100%, where TC is test compound (C118P or C118) concentration in sample before ultrafiltration, and PF is the test compound concentration in the ultrafiltrate (Table 1).
Plasma protein binding of C118P and C118 were determined by ultrafiltration at four concentrations (C118P: 400, 4000, 40,000, and 400,000 ng/mL, C118: 20, 200, 2000, and 20,000 ng/mL) in pooled plasma from Sprague-Dawley rats, beagle dogs, and humans. Stock solutions of C118P and C118 dissolved in methanol were diluted with blank plasma to achieve the test concentrations (the methanol volume is less than 10% of the plasma). The plasma was incubated for 1 h in a water bath at 37 °C. The total concentration of C118P and C118 of spiked plasma (TC) was analyzed by previously described methods. Ultrafiltration was performed with activated high speed centrifugal tubes (Millipore, Burlington, MA, USA). Plasma samples (0.4 mL) were added to the upper layer of the high speed centrifugal tubes, and then centrifuged at 12,000 g for 10 min. The concentration of unbound C118P and C118 in filtrate (PF) was similarly determined by the previously described methods. The percentage of free fraction (fu) of C118P and C118 was calculated as follows: fu = (PF/TC) × 100%.

[2] = Tandem two-compartment PK model of C118P and C118; assay type: in vivo, rat; details: for K12 / K21 / V1 / K10: rat; for K12 / K21 / V1: two-compartmental model parameter (Table S1); for K10: two-compartmental model, K10 supposed to be transformation rate of C118P into C118, simulated
Description: Due to the rapid transformation of C118P into C118, there is no direct way to calculate the rate of transformation, thus a two-compartment model with metabolism involved was developed (Figure S3). The transformation rate from C118P into C118 was simulated by fitting the two-serial data of prodrug C118P and C118 in rats and dogs.
3. The pharmacokinetic profile of C118P and C118 was simulated by two compartmental models. To simplify the model, the excretion rate of C118P from central compartment was supposed to be zero. In this model, both C118P and C118 were described by two-compartmental model, with elimination rate of k(0,3) for C118. The connection between C118P and C118 is by the uniflow of transformation rate of k(3,1) since the metabolism of C118P to C118 is irreversible(Figure S3).
Figure S3. The pharmacokinetic model of C118P and C118 in rat after i.v C118P. ex1: the injection dose of C118P, s1: concentration of C118 in central compartment. s2: concentration of C118 in central compartment, q1 and q3 represent the central compartment of C118P and C118, respectively.
The q2 and q4 represent the peripheral compartment of C118P and C118, respectively. k(0,3) represents the elimination rate of C118 from central compartment. k(3,1) represents the transformation rate of C118P to C118. k(2,1) and k(4,3) represent the distribution rate of C118P and C118 from central compartment to peripheral compartment. k(1,2) and k(3,4) represent the return rate of C118P and C118 from peripheral compartment to central compartment.
For prodrug pharmacokinetic prediction, the transformation of prodrug to the active drug should be studied in different system to get the right data. With the help of modeling, the transformation ratio of C118P to C118 was calculated by a tandem two-compartment model (SAAMII, University of Washington). In simulation study, the initial parameters are very important for accurate prediction.
The initial compartmental model parameters of rat and dog were first evaluated by Winnonlin using two-compartmental model at low dose, with intravenous for C118P and extra vessel for C118 since […]
(1 picture or pasted object on this page, not shown here)
C118 was transformed from C118P. The initial parameters used in the simulation were listed in Table S1. Using these parameters, the simulation of PK profiles of rat and dog are well fit to the data from in vivo at higher dose (Figure S4). The simulation of C118P and C118, the transformation rate of C118P to C118 is calculated and transformation ratio (k) is about 18.3671/h and12.588 1/h for rats and dogs, respectively.
Figure S4. The simulation of PK profile at 20 mg/kg in rat(A) and 6 mg/kg(B) in dog based on initial parameters calculated by Winnonlin. (s1 represent the simulated data for C118 and s2 represent the simulated data for C118P, plasma 1 represent the experimental data for C118 and plasma 2 represent the experimental data for C118P.) […]

[3] = Metabolic stability in liver microsomes; assay type: in vitro ADME, mice
Experimental: The in vitro metabolic stability of C118P and C118 were estimated in mice, rat, dog, monkey, and human liver microsomes (Research Institute for Liver Diseases Co. Ltd (Shanghai, China)). The incubation mixture contains C118P or C118, NADP (1.0 mM), G-6-P (10 mM), PDH (2 units/mL), MgCl2 (10 mM), and liver microsomes (mice, rats, dogs, monkeys, or humans, 1.0 mg protein/mL) in phosphate buffer. A total of 200 μL of the mixture was removed and quenched with 600 μL acetonitrile in an ice bath at 0, 15, 30, 60, 120, and 240 min after the addition of NADPH.
CLint, in vitro (the in vitro intrinsic clearance, Equation (1)) was calculated from the t1/2 of C118 disappearance, where Cprotein is the protein concentration during the incubation, and t1/2 was determined by the slope (k) of the log-linear regression analysis of the concentration versus time profiles; thus, t1/2 = ln2/k. […] The in vivo hepatic clearance (CLH, Equation (3)) was then calculated by using CLint and hepatic blood flow, Q ([…] mL·min^−1·kg^−1 in rats, dogs, monkey, and humans, respectively), in the well-stirred liver model disregarding all binding. The hepatic extraction ratio was calculated as CLH divided by Q. CLint, in vitro = (0.693/t1/2) × (1/Cprotein)(1) CLint = CLint, in vitro × (mg protein/g liver weight) × (gliver weight/kg body weight)(2) CLH = (Q × CLint)/(Q + CLint)(3)

Row | fraction unbound at 1 h, 200 ng/mL ([1]; pooled plasma, C118 200 ng/mL) | fraction unbound at 1 h, 2000 ng/mL ([1]; pooled plasma, C118 2000 ng/mL) | fraction unbound at 1 h, 20000 ng/mL ([1]; pooled plasma, C118 20,000 ng/mL) | CLint, in vitro ([3]; mice liver microsomes) [μL·min^−1·mg^−1 Protein] | CLint ([3]; mice, scaled from CLint, in vitro) [mL/min/kg] | half-life ([3]; mouse, mice liver microsomes, 1.0 mg protein/mL, C118 disappearance) [min] | SMILES | K12 [2] [h⁻¹] | K21 [2] [h⁻¹] | V1 [2] [L/kg] | K10 [2] [h⁻¹] | fraction unbound at 1 h, 400 ng/mL ([1]; C118P 400 ng/mL) | fraction unbound at 1 h, 4000 ng/mL ([1]; C118P 4000 ng/mL) | fraction unbound at 1 h, 40000 ng/mL ([1]; C118P 40,000 ng/mL) | fraction unbound at 1 h, 400000 ng/mL ([1]; C118P 400,000 ng/mL) | transformation ratio (k) of C118P to C118 ([2]; rats, simulated with tandem two-compartment model) [h⁻¹] | stability in liver microsomes ([3]; mice liver microsomes (Figure S1))
1 | 0.077 ± 0.008 | 0.065 ± 0.003 | 0.055 ± 0.001 | 44.7 | 115.3 | 15.5 | COc1cc(OC)cc(-c2nc[nH]c2-c2ccc(OC)c(O)c2)c1 [C118] | 0.3516 | 0.0121 | 2.708 | 0.9897 | – | – | – | – | – | –
2 | – | – | – | – | – | – | COc1cc(OC)cc(-c2nc[nH]c2-c2ccc(OC)c(OP(=O)([O-])[O-])c2)c1.[Na+].[Na+] [C118P] | 6.535 | 18.281 | 0.05441 | 18.369 | 0.032 ± 0.001 | 0.029 ± 0.001 | 0.024 ± 0.001 | 0.122 ± 0.006 | ~18.367 | quite stable
